Test results taken from PubChem BioAssay AID248 (DTP/NCI, 2004).
Where “and” joins values, the source holds several entries; their conditions need not be identical. Identical values can stand only once. Toxic doses and inconclusive results are not listed. Cut-off read from the data, not from the text of the source: active = T/C of 150% or more; inactive = T/C below 125%.

Tested on: L1210 leukemia ip in BDF1 mice, survival T/C
Test: NCI In Vivo Anticancer Drug Screen. Data for tumor model L1210 Leukemia (intraperitoneal) in B6D2F1 (BDF1) mice
Conditions: endpoint: mean survival time, higher = longer survival
In short: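 In this screen, tumor-bearing mice given compound are compared to those given vehicle, and their survival values are reported as a treated-to-control quotient.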

[1] = dose: 100.0 mg/kg/injection, schedule: Q04DX003 (ip), vehicle: Klucel (hydroxypropylcellulose) (HPC)
[2] = dose: 200.0 mg/kg/injection, schedule: Q04DX003 (ip), vehicle: Klucel (hydroxypropylcellulose) (HPC)
[3] = dose: 400.0 mg/kg/injection, schedule: Q04DX003 (ip), vehicle: Klucel (hydroxypropylcellulose) (HPC)
[4] = dose: 100.0 mg/kg/injection, schedule: Q01DX001 (ip), vehicle: carboxymethylcellulose (CMC)
[5] = dose: 200.0 mg/kg/injection, schedule: Q01DX001 (ip), vehicle: carboxymethylcellulose (CMC)
[6] = dose: 400.0 mg/kg/injection, schedule: Q01DX001 (ip), vehicle: carboxymethylcellulose (CMC)
[7] = dose: 50.0 mg/kg/injection, schedule: Q01DX001 (ip), vehicle: saline
[8] = dose: 100.0 mg/kg/injection, schedule: Q01DX001 (ip), vehicle: saline
[9] = dose: 200.0 mg/kg/injection, schedule: Q01DX001 (ip), vehicle: saline
[10] = dose: 400.0 mg/kg/injection, schedule: Q01DX001 (ip), vehicle: saline
[11] = dose: 50.0 mg/kg/injection, schedule: Q01DX009 (ip), vehicle: saline with Tween-80
[12] = dose: 100.0 mg/kg/injection, schedule: Q01DX009 (ip), vehicle: Klucel (hydroxypropylcellulose) (HPC)
[13] = dose: 100.0 mg/kg/injection, schedule: Q01DX009 (ip), vehicle: saline with Tween-80
[14] = dose: 200.0 mg/kg/injection, schedule: Q01DX009 (ip), vehicle: Klucel (hydroxypropylcellulose) (HPC)
[15] = dose: 200.0 mg/kg/injection, schedule: Q01DX009 (ip), vehicle: saline with Tween-80
[16] = dose: 400.0 mg/kg/injection, schedule: Q01DX009 (ip), vehicle: Klucel (hydroxypropylcellulose) (HPC)
[17] = dose: 100.0 mg/kg/injection, schedule: Q01DX009 (ip), vehicle: saline sonified
[18] = dose: 200.0 mg/kg/injection, schedule: Q01DX009 (ip), vehicle: saline sonified
[19] = dose: 100.0 mg/kg/injection, schedule: Q01DX001 (ip), vehicle: Klucel (hydroxypropylcellulose) (HPC)
[20] = dose: 100.0 mg/kg/injection, schedule: Q04DX002 (ip), vehicle: Klucel (hydroxypropylcellulose) (HPC)
[21] = dose: 200.0 mg/kg/injection, schedule: Q01DX001 (ip), vehicle: Klucel (hydroxypropylcellulose) (HPC)
[22] = dose: 200.0 mg/kg/injection, schedule: Q04DX002 (ip), vehicle: Klucel (hydroxypropylcellulose) (HPC)
[23] = dose: 400.0 mg/kg/injection, schedule: Q04DX002 (ip), vehicle: Klucel (hydroxypropylcellulose) (HPC)

Measured: T/C

COc1ccc(NC(=O)Oc2ccc(-c3ccccc3)cc2Br)cc1
inactive: [1] 96 % of control | [2] 96 % of control | [3] 92 % of control

CSc1cc2c(cc1NC(C)=O)C(=O)c1ccccc1-2
inactive: [4] 90 % of control | [5] 106 % of control | [6] 109 % of control

CN/N=C/c1cc(=O)[nH]c(=O)[nH]1
inactive: [7] 101 % of control | [8] 104 % of control | [9] 95 % of control

Cc1c(C)c2cccc(C)c2[nH]c1=O
inactive: [8] 95 % of control | [9] 95 % of control | [10] 103 % of control

CCN1CCCC(SC(=O)C(O)(c2ccccc2)c2ccccc2)C1 (configuration not stated)
inactive: dose: 75.0 mg/kg/injection, schedule: Q01DX001 (ip), vehicle: other 94 % of control | dose: 150.0 mg/kg/injection, schedule: Q01DX001 (ip), vehicle: other 94 % of control | dose: 300.0 mg/kg/injection, schedule: Q01DX001 (ip), vehicle: other 88 % of control

O=NN1CCCCC1
inactive: [7] 93 % of control | [8] 104 % of control | [9] 96 % of control

CCOC(=O)c1[nH]c(-c2ccccc2)c(C(=O)OCC)c1-c1ccccc1
inactive: [1] 100 % of control | [2] 103 % of control | [3] 115 % of control

CCCCNC(=O)/C=C\C(=O)O
inactive: [11] 95 % of control | [12] 87 % of control | [13] 97 % of control | dose: 100.0 mg/kg/injection, schedule: Q01DX009 (ip), vehicle: saline 92 % of control | [1] 100 % of control | [14] 87 % of control | [15] 95 % of control | dose: 200.0 mg/kg/injection, schedule: Q01DX009 (ip), vehicle: saline 94 % of control | [16] 100 % of control | dose: 400.0 mg/kg/injection, schedule: Q01DX009 (ip), vehicle: saline 97 % of control | [3] 87 % of control

CC(C)Oc1ccc2c(c1)N(CCC1CCCCN1)c1ccccc1S2 (configuration not stated)
inactive: dose: 12.5 mg/kg/injection, schedule: Q01DX009 (ip), vehicle: Klucel (hydroxypropylcellulose) (HPC) 101 % of control | dose: 25.0 mg/kg/injection, schedule: Q01DX009 (ip), vehicle: Klucel (hydroxypropylcellulose) (HPC) 103 % of control

C=C(NC(C)=O)C(O)c1ccc([N+](=O)[O-])cc1 (configuration not stated)
inactive: dose: 50.0 mg/kg/injection, schedule: Q01DX001 (ip), vehicle: carboxymethylcellulose (CMC) 96 % of control | [4] 100 % of control and 90 % of control | [12] 95 % of control | [1] 101 % of control | [5] 94 % of control and 97 % of control | [14] 93 % of control | [2] 98 % of control | [6] 100 % of control and 87 % of control | [16] 95 % of control | [3] 95 % of control

CN(C)c1ccc2c(c1)C(=NO)c1cc(N(C)C)ccc1-2
inactive: [1] 104 % of control | [2] 96 % of control | [3] 91 % of control

Cc1ccc(Nc2nc(N)nc(N)c2N)cc1C
inactive: dose: 25.0 mg/kg/injection, schedule: Q01DX Z (ip), vehicle: saline 93 % of control

[CH3][Hg][O]C(C)=O
inactive: dose: 3.0 mg/kg/injection, schedule: Q01DX009 (ip), vehicle: Klucel (hydroxypropylcellulose) (HPC) 86 % of control | dose: 3.12 mg/kg/injection, schedule: Q04DX003 (ip), vehicle: Klucel (hydroxypropylcellulose) (HPC) 104 % of control | dose: 6.0 mg/kg/injection, schedule: Q01DX009 (ip), vehicle: Klucel (hydroxypropylcellulose) (HPC) 91 % of control | dose: 6.25 mg/kg/injection, schedule: Q04DX003 (ip), vehicle: Klucel (hydroxypropylcellulose) (HPC) 96 % of control | dose: 12.5 mg/kg/injection, schedule: Q04DX003 (ip), vehicle: Klucel (hydroxypropylcellulose) (HPC) 96 % of control and 97 % of control

O=C(CCCl)OCCCl
inactive: dose: 50.0 mg/kg/injection, schedule: Q01DX009 (ip), vehicle: saline sonified 94 % of control | [17] 96 % of control | [18] 94 % of control

CCOC(=O)C(CC(=O)O)=C1c2ccccc2-c2ccccc21
inactive: [19] 100 % of control | [12] 95 % of control and 102 % of control | [20] 95 % of control and 102 % of control | [21] 94 % of control | [14] 95 % of control and 96 % of control | [22] 96 % of control and 98 % of control

CN(C)CCCNC(=S)Nc1ccc(Cl)cc1
inactive: [11] 108 % of control | [13] 108 % of control

CC(C)(C)c1ccc(N)cc1
inactive: dose: 12.5 mg/kg/injection, schedule: Q04DX003 (ip), vehicle: saline 106 % of control | dose: 25.0 mg/kg/injection, schedule: Q04DX003 (ip), vehicle: saline 95 % of control | dose: 50.0 mg/kg/injection, schedule: Q04DX003 (ip), vehicle: saline 98 % of control

O=C(CC(NC(=O)OCc1ccccc1)C(=O)O)OCc1ccccc1 (configuration not stated)
inactive: [17] 95 % of control | [13] 103 % of control | dose: 100.0 mg/kg/injection, schedule: Q04DX003 (ip), vehicle: saline sonified 97 % of control | [18] 94 % of control | [15] 94 % of control | dose: 200.0 mg/kg/injection, schedule: Q04DX003 (ip), vehicle: saline sonified 89 % of control | dose: 400.0 mg/kg/injection, schedule: Q01DX009 (ip), vehicle: saline sonified 90 % of control | dose: 400.0 mg/kg/injection, schedule: Q01DX009 (ip), vehicle: saline with Tween-80 94 % of control | dose: 400.0 mg/kg/injection, schedule: Q04DX003 (ip), vehicle: saline sonified 103 % of control

N#Cc1ccccc1C(Cl)(Cl)Cl
inactive: [20] 100 % of control | [22] 106 % of control | [23] 100 % of control

Cc1ccc(S(=O)(=O)N(C)c2cc(Cl)c(I)c(Cl)c2)cc1
inactive: [12] 98 % of control | [14] 94 % of control | [16] 96 % of control

O=C(NCCN1C(=O)C2C3CCC(O3)C2C1=O)Nc1ccc([N+](=O)[O-])cc1[N+](=O)[O-] (configuration not stated)
inactive: [20] 108 % of control | [22] 101 % of control | [23] 108 % of control

O=C(CNC(=O)OCc1ccccc1)Nc1ccc(S(=O)(=O)c2ccc(NC(=O)CNC(=O)OCc3ccccc3)cc2)cc1
inactive: [7] 96 % of control | [8] 96 % of control | [9] 96 % of control | [10] 90 % of control

CCCCNC(=O)NS(=O)(=O)c1ccc(C)cc1
inactive: [19] 96 % of control | [21] 96 % of control | dose: 400.0 mg/kg/injection, schedule: Q01DX001 (ip), vehicle: Klucel (hydroxypropylcellulose) (HPC) 89 % of control
